The values that follow come from US9115073B2, “1,3-diphenylpropane derivatives, preparations and uses thereof” (GENFIT, priority 2011, dated 2015).

What all share (type): cell-based
One assay has as its target T1, hPPARalpha (Homo sapiens, UniProt Q07869).
T1 construct: Gal4-hPPARα(LBD); Gal4 (fusion partner); expressed in transfected cells; host or cells: COS-7 (monkey kidney)
T1 sequence (Q07869 239-466 limits assumed): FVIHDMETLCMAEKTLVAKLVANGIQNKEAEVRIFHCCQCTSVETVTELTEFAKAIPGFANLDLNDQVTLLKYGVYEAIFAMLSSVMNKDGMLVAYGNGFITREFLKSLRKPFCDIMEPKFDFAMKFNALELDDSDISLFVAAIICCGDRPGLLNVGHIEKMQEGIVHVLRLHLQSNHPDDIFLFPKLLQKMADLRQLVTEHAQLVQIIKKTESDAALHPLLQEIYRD
Kind of assay: Gal4-hPPARalpha transactivation assay in COS-7 cells (luciferase). The settings on record: for pEC50: Gal4-hPPARα(LBD) transactivation; for Gal4-hPPARα(LBD) TOP (% ref): maximal relative activation vs reference; for Emax: COS-7, maximal relative activation vs reference, read-out: Gal4-hPPARα(LBD) TOP (% ref). As for the experimental part:
(§1) Monkey kidney COS-7 cells were maintained in standard culture conditions (Dulbecco's modified Eagle's minimal medium: DMEM) supplemented with 10% fetal calf serum, 1% sodium pyruvate, 1% essential amino acids and 1% antibiotics at 37° C. in a humidified atmosphere of 5% C02 and 95% air. The medium was changed every 2 days. All tested compounds were dissolved in DMSO. Cells were transfected using 2 μl JetPEI™ (Polyplus transfection)/μg of DNA. Briefly, 40 μg of DNA was transfected in a 225 cm^2 culture flask of adherent COS-7 cells (respecting the 1/50 ratio between the Gal4(RE)_TkpGL3 plasmid and the plasmid coding the nuclear receptor of interest (pGal4-hPPARalpha, pGal4-hPPARgamma, pGal4-hPPARdelta, pGal4-mPPARalpha, pGal4-mPPARgamma and pGal4-mPPARdelta) or of the pGal4phi plasmid (negative control). Cells were enzymatically detached and seeded in 384 well plates at the density of 20,000 cells/well and then incubated for 4 hours at 37° C. The activation was automatically performed, by using the Genesis Freedom 200™ (Tecan), in fresh medium supplemented with 2% of synthetic serum, free of lipids (Ultroser™, Biosepra) supplemented with the tested compounds (compound of interest or reference molecules) or vehicle (DMSO 0.1%). The luciferase activity was measured with the Steady-Glo Luciferase Assay System (Promega, Madison, Wis.). All transactivation experiments were performed at least 2 times. Activation curves were realized using SigmaPlot® (version 7.0 from SPSS Inc.) software and took into account all the experimental points. SimgaPlot® was also used to fit the standard curves and then determine the specific EC50 values, maximum effect versus reference molecules and Hill slope. The Emax effect of each new ligand is represented as the ratio of the maximal induction (plateau) obtained with the new ligand and the induction obtained with the corresponding reference compound. The reference compounds for PPARalpha, PPARgamma and PPARdelta were fenofibrate (100 μM), rosiglitazone (10 μM) and GW501516 (1 μM).

Another assay concerns the target T2, hPPARgamma (Homo sapiens, UniProt P37231).
T2 construct: Gal4-hPPARγ(LBD); Gal4 (fusion partner); expressed in transfected cells; host or cells: COS-7 (monkey kidney)
T2 sequence (P37231 238-503 limits assumed): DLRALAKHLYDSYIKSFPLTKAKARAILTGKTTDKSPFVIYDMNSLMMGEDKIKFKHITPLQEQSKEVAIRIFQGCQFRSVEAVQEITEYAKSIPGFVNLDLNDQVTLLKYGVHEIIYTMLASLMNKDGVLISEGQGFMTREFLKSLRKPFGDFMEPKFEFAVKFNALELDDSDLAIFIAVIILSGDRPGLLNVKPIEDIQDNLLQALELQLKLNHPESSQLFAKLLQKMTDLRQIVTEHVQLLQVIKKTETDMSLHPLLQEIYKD
The experiment in a line: Gal4-hPPARgamma transactivation assay in COS-7 cells (luciferase). To be noted: for pEC50: Gal4-hPPARγ(LBD) transactivation; for Gal4-hPPARγ(LBD) TOP (% ref): maximal relative activation vs reference; for Emax: COS-7, maximal relative activation vs reference, read-out: Gal4-hPPARγ(LBD) TOP (% ref). Here is the method:
as §1

For a further assay, the target named is T3, hPPARdelta (Homo sapiens, UniProt Q03181).
T3 construct: Gal4-hPPARδ(LBD); Gal4 (fusion partner); expressed in transfected cells; host or cells: COS-7 (monkey kidney)
T3 sequence (Q03181 211-439 limits assumed): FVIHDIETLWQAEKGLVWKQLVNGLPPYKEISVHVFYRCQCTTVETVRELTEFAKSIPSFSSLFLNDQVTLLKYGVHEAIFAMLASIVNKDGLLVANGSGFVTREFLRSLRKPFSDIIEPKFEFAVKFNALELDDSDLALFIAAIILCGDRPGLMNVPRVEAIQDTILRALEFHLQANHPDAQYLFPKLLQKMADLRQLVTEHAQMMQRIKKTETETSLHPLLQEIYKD
The experiment in a line: Gal4-hPPARdelta transactivation assay in COS-7 cells (luciferase). The settings on record: for pEC50: Gal4-hPPARδ(LBD) transactivation; for Gal4-hPPARδ(LBD) TOP (% ref): maximal relative activation vs reference; for Emax: COS-7, maximal relative activation vs reference, read-out: Gal4-hPPARδ(LBD) TOP (% ref). Here is the method: as §1

pEC50: −log10 of the molar value.

By pEC50 is commonly meant −log10 of the EC50, conventionally taken in molar units. For the compound `COC(c1ccc(Br)cc1)C1CC1c1cc(C)c(OC(C)(C)C(=O)O)c(C)c1` (racemic) [Cpd 1-2, 2-(4-(2-(methoxy(4-bromophenyl)methyl)cyclopropyl)-2,6-dimethylphenoxy)-2-methylpropanoic acid], at hPPARalpha, the pEC50 is 6.73 and the “Gal4-hPPARα(LBD) TOP (% ref)” value is listed as 33 % ref. Moreover, on hPPARgamma, the pEC50 is 7.72 and the “Gal4-hPPARγ(LBD) TOP (% ref)” value stood at 77 % ref. For the same compound, on hPPARdelta, the pEC50 was 7.27 and the “Gal4-hPPARδ(LBD) TOP (% ref)” value was determined as 83 % ref.

Take `COC(c1ccc(C)cc1)C1CC1c1cc(C)c(OC(C)(C)C(=O)O)c(C)c1` (racemic) [Cpd 2-1, 2-(4-(2-(methoxy(4-methylphenyl)methyl)cyclopropyl)-2,6-dimethylphenoxy)-2-methylpropanoic acid]: the results for the Emax on hPPARalpha, on hPPARgamma and on hPPARdelta were 35%, 72% and 85%, respectively. Besides, the figures for the pEC50 at hPPARalpha, at hPPARgamma and on hPPARdelta were 6.20, 6.96 and 6.82, respectively.

With `COC(c1ccc(SC)cc1)C1CC1c1cc(C)c(OC(C)(C)C(=O)O)c(C)c1` (racemic) [Cpd 3-2, 2-(4-(2-(methoxy(4-(methylthio)phenyl)methyl)cyclopropyl)-2,6-dimethylphenoxy)-2-methylpropanoic acid], the “Gal4-hPPARα(LBD) TOP (% ref)” value on hPPARalpha is on record as 42 % ref. In addition, on hPPARgamma, the “Gal4-hPPARγ(LBD) TOP (% ref)” value turned out to be 65 % ref. Also, the “Gal4-hPPARδ(LBD) TOP (% ref)” value on hPPARdelta stood at 75 % ref.

Take `COC(c1ccc(C(F)(F)F)cc1)C1CC1c1cc(C)c(OC(C)(C)C(=O)O)c(C)c1` (racemic) [Cpd 4-1, 2-(4-(2-(methoxy(4-(trifluoromethyl)phenyl)methyl)cyclopropyl)-2,6-dimethylphenoxy)-2-methylpropanoic acid]: the Emax was found to be 47% at hPPARalpha, 84% on hPPARgamma and 92% at hPPARdelta. Besides, the values for the pEC50 on hPPARalpha, at hPPARgamma and on hPPARdelta were 7.19, 7.70 and 7.80, respectively.

For the compound `CCCCOC(c1ccc(OC(F)(F)F)cc1)C1CC1c1cc(C)c(OC(C)(C)C(=O)O)c(C)c1` (racemic) [Cpd 5-2, 2-(4-(2-(butyloxy(4-(trifluoromethoxy)phenyl)methyl)cyclopropyl)-2,6-dimethylphenoxy)-2-methylpropanoic acid], the “Gal4-hPPARα(LBD) TOP (% ref)” value at hPPARalpha stood at 47 % ref. On hPPARgamma, the “Gal4-hPPARγ(LBD) TOP (% ref)” value worked out at 72 % ref. The “Gal4-hPPARδ(LBD) TOP (% ref)” value at hPPARdelta amounted to 60 % ref.

With `Cc1cc(C2CC2C(OCCC2CCCCC2)c2ccc(OC(F)(F)F)cc2)cc(C)c1OC(C)(C)C(=O)O` (racemic) [Cpd 6-1, 2-(4-(2-(cyclohexylethyloxy(4-(trifluoromethoxy)phenyl)methyl)cyclopropyl)-2,6-dimethylphenoxy)-2-methylpropanoic acid], the Emax at hPPARalpha stood at 36%; at hPPARgamma, 71%; at hPPARdelta, 72%. In addition, the figures for the pEC50 at hPPARalpha, at hPPARgamma and on hPPARdelta were 7.17, 7.03 and 7.00, respectively.

As to `Cc1cc(C2CC2C(OCCC2CCCCC2)c2ccc(OC(F)(F)F)cc2)cc(C)c1OC(C)(C)C(=O)O` (racemic) [Cpd 6-2, 2-(4-(2-(cyclohexylethyloxy(4-(trifluoromethoxy)phenyl)methyl)cyclopropyl)-2,6-dimethylphenoxy)-2-methylpropanoic acid], at hPPARalpha, the pEC50 is 7.59 and the “Gal4-hPPARα(LBD) TOP (% ref)” value is listed as 38 % ref. At hPPARgamma, the negative-log EC50 (pEC50) is 7.47 and the “Gal4-hPPARγ(LBD) TOP (% ref)” value was 79 % ref. On hPPARdelta, the pEC50 is 6.88 and the “Gal4-hPPARδ(LBD) TOP (% ref)” value came out at 66 % ref.

As for `COC(c1ccc(OC(F)(F)F)cc1)C1CC1c1ccc(OC(C)(C)C(=O)O)c(C)c1` (racemic) [Cpd 7-1, 2-(4-(2-(methoxy(4-(trifluoromethoxy)phenyl)methyl)cyclopropyl)-2-methylphenoxy)-2-methylpropanoic acid], the Emax came to 42% at hPPARalpha, 55% at hPPARgamma and 90% at hPPARdelta. The pEC50 at hPPARalpha was 6.58; on hPPARgamma, 7.35; on hPPARdelta it was 7.46.

For the compound `COC(c1ccc(SC(F)(F)F)cc1)C1CC1c1cc(C)c(OC(C)(C)C(=O)O)c(C)c1` (racemic) [Cpd 9-1, 2-(4-(2-(methoxy(4-(trifluoromethylthio)phenyl)methyl)cyclopropyl)-2,6-dimethylphenoxy)-2-methylpropanoic acid], the Emax at hPPARalpha worked out at 50%; at hPPARgamma, 77%; at hPPARdelta it was 89%. Also, the results for the pEC50 at hPPARalpha, at hPPARgamma and on hPPARdelta were 8.00, 7.96 and 7.85, respectively.

On to `CCOC(c1ccc(OC(F)(F)F)cc1)C1CC1c1cc(C)c(OC(C)(C)C(=O)O)c(C)c1` (racemic) [Cpd 10-1, 2-(4-(2-(ethoxy(4-(trifluoromethoxy)phenyl)methyl)cyclopropyl)-2,6-dimethylphenoxy)-2-methylpropanoic acid], for which the Emax at hPPARalpha is 51%; on hPPARgamma it was 74%; at hPPARdelta, 90%. The values for the pEC50 on hPPARalpha, on hPPARgamma and at hPPARdelta were 7.42, 7.02 and 7.85, respectively.

`CCOC(c1ccc(OC(F)(F)F)cc1)C1CC1c1cc(C)c(OC(C)(C)C(=O)O)c(C)c1` (racemic) [Cpd 10-2, 2-(4-(2-(ethoxy(4-(trifluoromethoxy)phenyl)methyl)cyclopropyl)-2,6-dimethylphenoxy)-2-methylpropanoic acid]: at hPPARalpha, the negative logarithm of the EC50 (pEC50) is 7.52 and the “Gal4-hPPARα(LBD) TOP (% ref)” value came to 43 % ref. Further, the pEC50 at hPPARgamma was 7.41. Further, on hPPARdelta, the pEC50 is 7.62 and the “Gal4-hPPARδ(LBD) TOP (% ref)” value is 73 % ref.

`Cc1cc(C2CC2C(OCc2ccccc2)c2ccc(OC(F)(F)F)cc2)cc(C)c1OC(C)(C)C(=O)O` (racemic) [Cpd 11-2, 2-(4-(2-(benzyloxy(4-(trifluoromethoxy)phenyl)methyl)cyclopropyl)-2,6-dimethylphenoxy)-2-methylpropanoic acid]: on hPPARalpha, the “Gal4-hPPARα(LBD) TOP (% ref)” value was found to be 42 % ref. For the same compound, the “Gal4-hPPARγ(LBD) TOP (% ref)” value on hPPARgamma was determined as 87 % ref. The “Gal4-hPPARδ(LBD) TOP (% ref)” value on hPPARdelta worked out at 67 % ref.

Regarding `COC(c1ccc(C(F)(F)F)cc1F)C1CC1c1cc(C)c(OC(C)(C)C(=O)O)c(C)c1` (racemic) [Cpd 12-2, 2-(4-(2-(methoxy(2-fluoro-4-(trifluoromethyl)phenyl)methyl)cyclopropyl)-2,6-dimethylphenoxy)-2-methylpropanoic acid], the “Gal4-hPPARα(LBD) TOP (% ref)” value on hPPARalpha came out at 37 % ref. In addition, the “Gal4-hPPARγ(LBD) TOP (% ref)” value at hPPARgamma was 85 % ref. In addition, at hPPARdelta, the “Gal4-hPPARδ(LBD) TOP (% ref)” value is listed as 78 % ref.

On to `COC(c1ccc(OC(F)(F)F)cc1)C1CC1c1cc(C)c(OC(C)(C)C(=O)O)c(C)c1` (racemic) [Cpd 14-1, 2-(4-(2-(methoxy(4-(trifluoromethoxy)phenyl)methyl)cyclopropyl)-2,6-dimethylphenoxy)-2-methylpropanoic acid], for which the “Gal4-hPPARγ(LBD) TOP (% ref)” value at hPPARgamma (listed as cpd 14-1) is on record as 66 % ref. Besides, at hPPARdelta (listed as cpd 14-1), the “Gal4-hPPARδ(LBD) TOP (% ref)” value turned out to be 81 % ref.
